Data from ChEMBL document CHEMBL1949659, “The green tea polyphenol (2)-epigallocatechin-3-gallate (EGCG) is not a β-secretase inhibitor” (Bioorg Med Chem Lett, 2012).

Experiments:
[1] = tested on: CHO; assay: Cytotoxicity against CHO cells transfected with human BACE1 and human APP with Swedish mutation at 1 nM to 10 uM by MTT assay; format: cell-based, Cricetulus griseus; conditions: chinese hamster, 0.001 µM
[2] = biological target: T1, Beta-secretase 1 (Homo sapiens, UniProt P56817); assay: Inhibition of recombinant human BACE1 using Eu-CEVNLDAEFK-Qsy7 as substrate by HTRF assay
[3] = biological target: T1, Beta-secretase 1
[4] = biological target: T1, Beta-secretase 1; remark: listed apart in the source
[5] = biological target: T1, Beta-secretase 1; remark: listed apart in the source
[6] = biological target: T1, Beta-secretase 1; remark: listed apart in the source
[7] = biological target: T1, Beta-secretase 1; remark: listed apart in the source
[8] = biological target: T1, Beta-secretase 1; remark: listed apart in the source
[9] = biological target: T1, Beta-secretase 1; remark: listed apart in the source
[10] = biological target: T1, Beta-secretase 1; remark: listed apart in the source
[11] = biological target: T1, Beta-secretase 1; remark: listed apart in the source
[12] = biological target: T1, Beta-secretase 1; remark: listed apart in the source
[13] = biological target: T1, Beta-secretase 1; remark: listed apart in the source
[14] = biological target: T1, Beta-secretase 1; remark: listed apart in the source
[15] = tested on: Mus musculus; assay: Antialzheimer's disease activity in mouse cortex assessed as inhibition of beta-secretase mediated amyloid beta1-42 production at 1.5 mg/kg; format: functional
[16] = tested on: Mus musculus; assay: Antialzheimer's disease activity in mouse cortex assessed as inhibition of beta-secretase mediated amyloid beta1-42 production at 3 mg/kg; format: functional
[17] = tested on: Mus musculus; assay: Antialzheimer's disease activity in mouse hippocampus assessed as inhibition of beta-secretase mediated amyloid beta1-42 production at 1.5 mg/kg; format: functional
[18] = tested on: Mus musculus; assay: Antialzheimer's disease activity in mouse hippocampus assessed as inhibition of beta-secretase mediated amyloid beta1-42 production at 3 mg/kg; format: functional

T1 sequence (P56817 whole entry): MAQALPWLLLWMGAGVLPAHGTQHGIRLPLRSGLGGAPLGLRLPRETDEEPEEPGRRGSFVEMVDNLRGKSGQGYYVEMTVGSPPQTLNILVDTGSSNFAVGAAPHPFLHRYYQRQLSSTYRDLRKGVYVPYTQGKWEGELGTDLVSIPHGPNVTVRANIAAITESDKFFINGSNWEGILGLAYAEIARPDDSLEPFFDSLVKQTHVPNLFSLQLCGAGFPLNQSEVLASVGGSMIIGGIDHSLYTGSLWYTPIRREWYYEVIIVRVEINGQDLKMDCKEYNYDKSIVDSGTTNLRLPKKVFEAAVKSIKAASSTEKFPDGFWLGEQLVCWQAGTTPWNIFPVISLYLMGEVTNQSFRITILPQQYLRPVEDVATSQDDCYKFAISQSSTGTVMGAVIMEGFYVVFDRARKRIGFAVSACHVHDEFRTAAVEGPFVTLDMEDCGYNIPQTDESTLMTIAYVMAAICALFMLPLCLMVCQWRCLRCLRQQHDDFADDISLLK

| IC50 [2] | RFU [3] | RFU [4] | RFU [5] | RFU [6] | RFU [7] | RFU [8] | RFU [9] | RFU [10] | RFU [11] | RFU [12] | RFU [13] | RFU [14] | Structure (SMILES) | Activity [1] | inhibition in vivo at 1.5 mg/kg [15] | inhibition in vivo at 3 mg/kg [16] | inhibition in vivo at 1.5 mg/kg [17] | inhibition in vivo at 3 mg/kg [18] |
| --- | --- | --- | --- | --- | --- | --- | --- | --- | --- | --- | --- | --- | --- | --- | --- | --- | --- | --- |
| 3840 nM | 34.1 | 63.4 | 6.14 | 20.2 | 67.3 | 73.8 | 22.2 | 26.2 | 97.7 | 98.3 | 81.5 | 98.7 | CSc1cccc2c(O)c(C(=O)Nc3ccc(N(CCO)CCO)cc3)cnc12 | Non-toxic |  |  |  |  |
|  |  |  |  |  |  |  |  |  |  |  |  |  | C[C@@H](NC(=O)c1cc(C(=O)N[C@@H](Cc2ccccc2)[C@H](O)CNC2CC2)cc(N(C)S(C)(=O)=O)c1)c1ccccc1 | Non-toxic |  |  |  |  |
| 2270 nM | 39.1 | 65.1 | 4.36 | 13.7 | 72 | 77.2 | 24.9 | 26.2 | 87.4 | 90.1 | 80.3 | 87.4 | O=C(Nc1ccc(N(CCO)CCO)cc1)c1cnc2cc(Cl)cc(Cl)c2c1O | Non-toxic |  |  |  |  |
|  |  |  |  |  |  |  |  |  |  |  |  |  | O=C(O[C@@H]1Cc2c(O)cc(O)cc2O[C@@H]1c1cc(O)c(O)c(O)c1)c1cc(O)c(O)c(O)c1 [EPIGALOCATECHIN GALLATE] | Non-toxic | 18.6% | 51.2% | 25.5% | 39.8% |
| 2810 nM | 36.2 | 69.4 | 10.5 | 14.2 | 73 | 79 | 21.7 | 26.8 | 99.8 | 99.8 | 94.8 | 99.8 | CSc1ccc2c(O)c(C(=O)Nc3ccc(N(CCO)CCO)cc3)cnc2c1 | Non-toxic |  |  |  |  |
